Source: paper PMC5571359, “Screening the Medicines for Malaria Venture Pathogen Box across Multiple Pathogens Reclassifies Starting Points for Open-Source Drug Discovery” (Antimicrobial Agents and Chemotherapy, 2017)
Where two headings read alike, the source gives them in different places.

Tests used:
[1] = test system: T. cruzi C4 β-galactosidase reporter parasite in MRC 5SV2 host cells; conditions: cited from earlier work
T. brucei brucei = conditions: ref Pbox supporting information; read-out: T.b. brucei Pbox IC50; cited from earlier work
T. brucei rhodesiense = conditions: ref Pbox supporting information; read-out: T .b. rohdensie Pbox IC50; cited from earlier work
[2] = test system: L. donovani axenic amastigotes; set-up: method as in PBox supporting information; conditions: ref PBox supporting information; cited from earlier work
[3] = test system: L. infanium (macrophages); set-up: method as in Pbox supporting information; conditions: ref Pbox supporting information; cited from earlier work
[4] = test system: L. donovani (macrophages); set-up: method as in Pbox supporting information; conditions: ref Pbox supporting information; cited from earlier work
infected PMM = test system: infected PMM; set-up: method as in Pbox supporting information; conditions: ref Pbox supporting information, read-out: Toxicity on infected PMM Pbox IC50; cited from earlier work
HepG2 = conditions: HepG2; ref PBox supporting information; cited from earlier work
[5] = test system: NF54-pfs16-LUC-GFP stage IV gametocytes; assay: Plasmodium falciparum late stage gametocyte (LSG) image-based assay; format: cell-based
[6] = test system: T. cruzi intracellular amastigotes; assay: Intracellular anti-Trypanosoma cruzi image-based assay (amastigotes); format: cell-based
3T3 host cells = assay: T. cruzi assay, activity against 3T3 host cells; format: cell-based; conditions: reference compound set; IA = inactive at 16.4 μM
Method: page 4: […] Puromycin, 71 chloroquine, artesunate, DHA, pyronaridine and pyrimethamine were also tested in 72 IC50 format to act as internal reference compounds. 73 74 Intracellular anti-Trypanosoma cruzi Assay Protocol 75 The host cell cytoplasm, in which the parasite resides, is identified by the fluorescent 76 marker, HCS CellMask Green. Parasite and host cell nuclei are detected with the 77 fluorescent DNA intercalator, Hoechst 33342. The Opera® High Content Screening 78 System is used to take images of wells and a spot detection algorithm is used to 79 identify parasites within the cytoplasm. 80 81 Briefly, 1x 10^3 3T3 cells were added to collagen coated 384-well plates and following 82 24 hrs incubation at 37 °C, a multiplicity of infection (MOI) of 5:1 parasite: host cells 83 were added to the plate using a Multidrop liquid handler. Following additional 24 hrs 84 incubation, extracellular parasites were washed from the plates and RPMI with no […] 86 added to all wells. The final volume of media in the primary screening assay, before 87 addition of compound, was modified slightly to 55 µL. One µL of compounds, provided 88 by Compounds Australia, were diluted by the addition of 25 µL of sterile water. This […] 91 donovani). Five microliters of this dilution was added to assay plates. The final […] The final concentrations of compounds in the […] Following 48 hrs incubation in the presence 97 of compounds, wells were fixed, stained and read on the Opera® High Content 98 Screening System to assess compound activity. 99 The Z′-factor, as a measure of assay reproducibility, was determined from a plate […] The positive control used to calculate activity against […] To 103 assess the sensitivity of the T. cruzi assay, activity of the reference compounds 104 benznidazole, NFX, posaconazole and puromycin were determined. […] 108 resazurin as a measure of parasite viability. 109 T. b. brucei trypanosomes were cultured in vitro in HM1-9 medium supplemented with […] Fifty-five µL of logarithmic phase […] 112 incubated for 24 hrs at 37°C /5% CO2. Compounds were subsequently added to the […] Following […] 116 37°C / 5% CO2 followed by 22 hrs at room temperature. […] The percent

[7] = test system: T. b. brucei 427 bloodstream trypanosomes; assay: T. b. brucei resazurin viability assay; format: cell-based, Trypanosoma brucei brucei
[8] = test system: L. donovani MHOM/IN/80/DD8 intracellular amastigotes; assay: Leishmania donovani intracellular amastigote assay in THP-1 cells; format: cell-based; conditions: reference compound set, IA = inactive at 20 μM
[9] = test system: Plasmodium falciparum 3D7 asexual blood stage; conditions: for IC50: read-out: IC50 P. falciparum 3D7 ABS
L. major = test system: L. major; set-up: method as in Pbox supporting information; conditions: ref Pbox supporting information; cited from earlier work
P. falciparum ABS = conditions: read-out: Pf 3D7 Pbox IC50, cited from earlier work
[10] = test system: P. falciparum stage V gametocytes; conditions: cited from earlier work
HEK293 cells = assay: HEK293 resazurin cell cytotoxicity assay
[11] = test system: Plasmodium falciparum 3D7 asexual blood stage; assay: microbe, parasite or virus in culture; conditions: 3D7, read-out: Antiplasmodial IC50 (ABS), PBox compounds, P. falciparum 3D7
liver stage = conditions: ref Pbox supporting information; cited from earlier work
[12] = ref Pbox supporting information, read-out: T. cruzi Pbox IC50
[13] = reference compound set, 11-point dose response, IA = inactive at 20 μM, read-out: IC50 P. falciparum NF54 LSG
[14] = reference compound set, IA = inactive at 16.4 μM, read-out: IC50 T. cruzi intracellular amastigotes
[15] = reference compound set, IA = inactive at 20 μM, read-out: IC50 T. brucei brucei trypomastigotes
[16] = read-out: IC50 L. donovani n = 1, first test
[17] = read-out: IC50 L. donovani n = 2, second test
[18] = Homo sapiens, HEK293, read-out: HEK % Inhibition 20uM/IC50 Discovery Biology
[19] = reference compound set, 11-point dose response, IA = inactive at 20 μM
[20] = Plasmodium falciparum, NF54, read-out: Antiplasmodial IC50 (GAM / LSG), PBox compounds, stage IV gametocytes, single determination

| Compound | IC50 [1, 12] [µM] | IC50 (T. brucei brucei) [µM] | IC50 (T. brucei rhodesiense) [µM] | IC50 [2] [µM] | IC50 [3] [µM] | IC50 [4] [µM] | IC50 (infected PMM) [µM] | HepG2 PBox CC20 (HepG2) [µM] | also measured |
| --- | --- | --- | --- | --- | --- | --- | --- | --- | --- |
| Cc1nc(-c2ccccn2)nc(NCCc2ccc(S(C)(=O)=O)cc2)c1Cl [MMV658993] | 4.44 | > 32 | > 32 | 2.05 | > 32 | > 30 | 30 | 27.9 | – |
| NCCC[C@](N)(C(=O)O)C(F)F [α-Difluoromethylornithine, reference compound] | – | – | – | – | – | – | – | – | IC50 [5, 13]: > 20 µM; IC50 [6, 14]: > 16.4 µM; IC50 (3T3 host cells): > 16.4 µM; IC50 [7, 15]: > 20 µM; IC50 [8, 16]: > 20 µM; IC50 [8, 17]: > 20 µM; IC50 [9]: > 20 µM |
| COC(=O)c1cccc2oc(-c3cccc(OC)c3NC(=O)c3cc(-c4ccccc4)on3)nc12 [MMV676186] | > 32 | > 32 | > 32 | 3.95 | > 32 | > 30 | > 30 | >80 | – |
| O=C(CN1CCOCC1)Nc1ccc2ncnc(Nc3ccc(OCc4cccc(F)c4)c(Cl)c3)c2c1 [MMV688274] | 0.95 | 5.31 | 3.07 | – | > 32 | – | – | 10.9 | IC50 (L. major): 12.4 µM |
| CCc1ccc(C(NCc2nc(N)nc(N(C)C)n2)C(C)C)cc1 (stereo not shown) [MMV1019989] | – | – | – | – | – | – | – | – | screening concentrations at which red blood cell (RBC) lysis was witnessed ([9]; human): ≥ 2 µM; IC50 (P. falciparum ABS; P. falciparum 3D7, ref PBox supporting information): > 2 µM; IC50 ([10]; stage V gametocytes, ref PBox supporting information, read-out: PF stage V GAMS PBox IC50): 0.076 µM; IC50 (HEK293 cells; Homo sapiens, HEK293, read-out: HEK % Inhibition 20uM/IC50 Discovery Biology (IA)): > 20 µM |
| O=C(Nc1ccccc1-c1nc2c(C(=O)O)cccc2o1)c1ccccc1 [MMV676162] | > 32 | > 32 | > 32 | 0.4 | > 32 | > 30 | > 30 | >80 | – |
| c1ccc(Oc2ccc(-c3cc(N4CCOCC4)[nH]n3)cc2)cc1 [MMV045105] | 16 | 3.45 | 1.29 | 3.87 | 21.5 | > 30 | > 30 | 7.5 | – |
| O=C(Nc1c(O)cccc1-c1nc2c(C(=O)O)cccc2o1)c1cc(-c2ccccc2)on1 [MMV676008] | > 32 | > 32 | > 32 | 0.57 | > 32 | > 30 | > 30 | 5.7 | – |
| COc1ccc(C(=N)N)cc1-c1cn(-c2ccc(C(=N)N)cc2)nn1 [MMV675998] | 21.5 | 0.25 | < 0.13 | 14.3 | > 32 | > 30 | 30 | 5.5 | IC50 ([7]; Trypanosoma brucei, read-out: T b.brucei Discovery Biology IC50): 0.27 µM; IC50 (HEK293 cells; [18]): > 20 µM |
| CC(=O)OC[C@H]1O[C@@H]([S-])[C@H](OC(C)=O)[C@@H](OC(C)=O)[C@@H]1OC(C)=O.CCP(CC)CC.[Au+] [Auranofin, reference compound] | – | – | – | – | – | – | – | – | IC50 [5, 13]: 0.55 µM; IC50 [6, 14]: 3.02 µM; IC50 (3T3 host cells): 4.9 µM; IC50 [7, 15]: 0.24 µM; IC50 [8, 16]: 0.63 µM; IC50 [8, 17]: 2 µM; IC50 [9, 19]: 0.7 µM; IC50 (HEK293 cells; read-out: IC50 mammalian cell cytotoxicity HEK293, reference compound set): 2.2 µM |
| c1ccc(Oc2ccc(-c3cc(CN4CCOCC4)[nH]n3)cc2)cc1 [MMV676161] | 16 | 15.1 | 5.26 | 9.7 | > 32 | 26.1 | 30 | 28.9 | – |
| C[C@H]1COc2c(N3CCN(C)CC3)c(F)cc3c(=O)c(C(=O)O)cn1c23 [Levofloxacin (–)-ofloxacin, reference compound] | – | – | – | – | – | – | – | – | IC50 [5, 13]: > 20 µM; IC50 [6, 14]: > 16.4 µM; IC50 (3T3 host cells): > 16.4 µM; IC50 [7, 15]: > 20 µM; IC50 [8, 16]: > 20 µM; IC50 [8, 17]: > 20 µM; IC50 [9, 19]: > 20 µM |
| Cc1nc(-c2ccccn2)nc(N(C)CCc2ccccc2)c1Cl [MMV658988] | 0.88 | 14.9 | 11.8 | 0.02 | 4.06 | 2.6 | 16.7 | 11.3 | IC50 [5, 20]: 0.3 µM; activity against T. cruzi at 8 μM in the Discovery Biology assay ([6]; 8 μM): no activity; IC50 ([1]; 7 days exposure, ref PBox supporting information, read-out: T. cruzi IC50 in the PBox supporting information file): < 1 µM; IC50 [11]: 2.18 µM; IC50 (HEK293 cells; [18]): > 20 µM |
| Cc1ccc(-c2cc(C(=O)Nc3cccnc3)c3cc(Br)ccc3n2)cc1 [MMV016838] | – | – | – | – | – | – | – | – | activity in the Discovery Biology stage IV gametocyte (LSG) assay [5]: not to be active; activity in the Discovery Biology ABS assay [9]: not to be active; IC50 (P. falciparum ABS; Pf 3D7, ref Pathogen Box supporting information): 0.1 µM; activity against gametocytes (stage V), PBox supporting information ([10]; ref Pbox supporting information): known to be active; activity against liver stage, PBox supporting information (liver stage): known to be active |
| FC(F)(F)c1cc(NCCc2ccccc2)nc(-c2ccccn2)n1 [MMV659010] | 4.25 | > 32 | 27.2 | 0.25 | 16.2 | 5.17 | 30 | >80 | IC50 [5, 20]: 1.71 µM; IC50 [11]: > 8 µM; IC50 (HEK293 cells; [18]): > 20 µM |
| Clc1ccc(Cl)c(CO[C@H]2CCCC[C@@H]2n2ccnc2)c1 [MMV676048] | 1.36 | > 32 | 22.9 | 15.6 | 16.2 | 12.8 | 30 | 37.1 | Emax ([6]; Trypanosoma cruzi, PBox kinetoplastid set compounds active against T. cruzi alone, read-out: Emax against T. cruzi (subefficacious effect)): < 100%; IC50 ([6]; Trypanosoma cruzi, intracellular amastigotes, read-out: T cruzi Discovery Biology IC50): 3.21 µM; IC50 (HEK293 cells; [18]): > 20 µM |
| N#CCN(CCCCN1CCN(c2ccc(F)cc2)CC1)C(=O)OCc1ccccc1 [MMV675997] | 4.62 | 24.9 | 16.4 | > 100 | 25.4 | 22.2 | > 30 | – | – |
| Clc1cccc(CO[C@H]2CCc3ccccc3[C@@H]2n2ccnn2)c1 [MMV676159] | 3.08 | > 32 | > 32 | 6.6 | > 32 | > 30 | > 30 | >80 | – |
